Source: article PMC7026885, “Macrofilaricidal Benzimidazole–Benzoxaborole Hybrids as an Approach to the Treatment of River Blindness: Part 1. Amide Linked Analogs” (ACS Infectious Diseases, 2019)
Read-outs that look alike come from different tables or passages of the source.

Key:
Litomosoides sigmodontis = Litomosoides sigmodontis natural infection in vivo model; conditions: L. sigmodontis, necropsy day 63, QD
Procedure: We characterized the in vitro ADME properties of 8a in preparation for evaluation of this compound in our primary in vivo model in gerbils. […] We were pleased to find that 8a was able to kill 100% of both male and female worms in the gerbil peritoneum when dosed subcutaneously at 100 mg/kg/day for 14 days as a suspension in a nonsolubilizing HEC/Tween vehicle. […] The subsequent assessment of the pharmacokinetics of 8a from these two dosing paradigms provided an interesting observation that we believe to be important in understanding the PK–PD requirements for achieving efficacy in this animal model. […] We had made the same observation in a positive control group using flubendazole at a subcutaneous dose of 10 mg/kg/day for 5 days in the nonsolubilizing HEC/Tween vehicle, namely, that plasma levels of flubendazole were maintained above the in vitro IC50 (4 nM) for over 42 days, consistent with data reported in the literature.[43] […] We next examined 8a in two additional in vivo models, the first where L3 B. pahangi larvae were injected into the peritoneum of gerbils and allowed to develop into adult worms[45] and a second where gerbils were naturally infected by the filarial nematode Litomosoides sigmodontis.[46],[47] In both of these models, 8a was administered subcutaneously at 100 mg/kg for 14 days or orally at 100 mg/kg for 28 days as a suspension. […] Additionally, when plasma obtained from treated animals at necropsy was analyzed for 8a, we observed an outcome similar to that observed in the adult implantation model, e.g., that measurable levels were present at this time point in the subcutaneous-dosed groups but not in the orally dosed groups, weeks after administration of the drug. In a final L. sigmodontis experiment with 8a, we dosed the compound subcutaneously at 300 mg/kg for 7 days as a suspension. […]
administered their doses at the same time each day and are allowed to feed and drink ad libitum. Gerbils were euthanized following approved institutional protocols. Euthanized animals were weighed and examined for external and visceral pathologies.
The adult Brugia worms were recovered by opening the body cavity and washing the peritoneal cavity with 100 mL of phosphate buffered saline. Male and female worms were counted using a
Litomosoides sigmodontis natural infection in vivo model
All animal experiments with L. sigmodontis were conducted at the Institute for Medical Microbiology, Immunology and Parasitology
(IMMIP), University Hospital of Bonn, in accordance to the European Union animal welfare guidelines. All protocols were approved by the local authorities (Landesamt für Natur, Umwelt […]
from Janvier (Saint-Berthevin, France) and were housed at the animal facility of the IMMIP in individually ventilated cages on a 12h light/dark cycle with food and water ad libidum. Mice were infected at 6-8 weeks of age via exposure to the natural mite vector Ornithonyssus bacoti containing infectious L. sigmodontis
L3 larvae. To compare the infection, the same batch of mite-containing bedding was used to infect all animals of one experiment. 35 days post infection, a time point adult worms have developed within the thoracic cavity, mice were treated per oral gavage with the test compounds at concentrations indicated in the result section. As a vehicle, 1% CMC + 0.1% Tween80 was used. Negative controls were treated with vehicle and as positive control, mice were treated orally with doxycycline
(Sigma) in 10% DMSO/1xPBS. Necropsies were performed at 64-77

[1] = test system: G2/M arrest (functional indicator of interaction with mammalian tubulin); assay: mammalian G2/M arrest assay; type: cell-based; conditions: Table 1; read-out: G2/M arrest IC50
Procedure: The first three analogs from the benzimidazole 5-carboxylic acid, namely 7a (from 6-aminobenzoxaborole), 8a (from 6-aminomethyl-3,3-dimethylbenzoxaborole), and 8b (from 3-aminomethylbenzoxaborole), were prepared and tested in an Onchocerca volvulus L3 larval molting assay[34],[35] and a mammalian G2/M arrest assay[36] to evaluate antifilarial activity and selectivity, respectively (Table 1). O. volvulus is the causative agent of river blindness, and the L3 molting assay is the only widely available and reproducible assay of this filariid, the target of novel macrofilaricidal drugs.[34],[35] Other animal models (e.g., Brugia in gerbils) recapitulate aspects of lymphatic filariasis and are also used as surrogate screens for O. volvulus infections. Of the three compounds tested, 8a emerged as the most attractive compound on the basis of potency and selectivity.
Similarly, changing the point of attachment on the benzoxaborole core from 6- to 5- to afford 8d was also accompanied by increased potency in both the O. volvulus and G2/M arrest assays.

[2] = MDR1-MDCK monolayer permeability assay; type: in vitro ADME; conditions: dog
Procedure: We characterized the in vitro ADME properties of 8a in preparation for evaluation of this compound in our primary in vivo model in gerbils. […] We were pleased to find that 8a was able to kill 100% of both male and female worms in the gerbil peritoneum when dosed subcutaneously at 100 mg/kg/day for 14 days as a suspension in a nonsolubilizing HEC/Tween vehicle. […] The subsequent assessment of the pharmacokinetics of 8a from these two dosing paradigms provided an interesting observation that we believe to be important in understanding the PK–PD requirements for achieving efficacy in this animal model. […] We had made the same observation in a positive control group using flubendazole at a subcutaneous dose of 10 mg/kg/day for 5 days in the nonsolubilizing HEC/Tween vehicle, namely, that plasma levels of flubendazole were maintained above the in vitro IC50 (4 nM) for over 42 days, consistent with data reported in the literature.[43] […] We next examined 8a in two additional in vivo models, the first where L3 B. pahangi larvae were injected into the peritoneum of gerbils and allowed to develop into adult worms[45] and a second where gerbils were naturally infected by the filarial nematode Litomosoides sigmodontis.[46],[47] In both of these models, 8a was administered subcutaneously at 100 mg/kg for 14 days or orally at 100 mg/kg for 28 days as a suspension. […] Additionally, when plasma obtained from treated animals at necropsy was analyzed for 8a, we observed an outcome similar to that observed in the adult implantation model, e.g., that measurable levels were present at this time point in the subcutaneous-dosed groups but not in the orally dosed groups, weeks after administration of the drug. In a final L. sigmodontis experiment with 8a, we dosed the compound subcutaneously at 300 mg/kg for 7 days as a suspension.

[3] = 100 mg/kg × 28 days, PO (suspension)
[4] = 300 mg/kg × 7 days, SC (suspension)

Row | Papp A→B ([2]; A-B, Table 1, read-out: MDCK-MDR1 Papp (A-B)) [×10⁻⁶ cm/s] | SMILES | adult worm reduction (Litomosoides sigmodontis; [3]) | animals with no worms (Litomosoides sigmodontis; [3]) [%] | adult worm reduction (Litomosoides sigmodontis; [4]) [%/100%] | animals with no worms (Litomosoides sigmodontis; [4]) [%/100%] | IC50 [1] [µM] | Papp A→B [2] [×10⁻⁶ cm/s] | adult worm reduction (Litomosoides sigmodontis; 10 mg/kg × 5 days, SC) [%/100%] | animals with no worms (Litomosoides sigmodontis; 10 mg/kg × 5 days, SC) [%/100%]
1 | – | COC(=O)Nc1nc2cc(C(=O)NCc3ccc4c(c3)B(O)OC4(C)C)ccc2[nH]1 [8a] | –135.3% | 0 | 100 | 100 | 13 | 0.8 | – | –
2 | 15.6 | COC(=O)Nc1nc2cc(C(=O)c3ccc(F)cc3)ccc2[nH]1 [compound 1, Flubendazole, reference compound] | – | – | – | – | 0.67 | – | 100 | 100
